Measurements from PMC10111413 (ACS Infectious Diseases, 2023).

Legend:
E. coli ATCC 25922 mcr-1 = type: cell-based; conditions: CLSI microbroth dilution, Mueller Hinton broth, 18 h at 37 °C, visual read-out, three technical replicates; mcr-1 colistin resistance plasmid
Procedure: (§1) The antibacterial activities of relacidine A (3a) and B (4a), along with diastereomers 3b and 4b–d and relacidamide (5), were assessed using a standard microbroth dilution assay to establish minimum inhibitory concentration (MIC) values against a panel of Gram-negative bacteria (Table 1). The MIC values measured for synthetic relacidine A (3a) and B (4a) agree well with those previously published.[9] […] Relacidine A (3a) and B (4a), as well as relacidamide (5), were further tested against a panel of colistin-resistant A. baumannii clinical isolates, which confirmed their ability to prevent the growth of colistin-resistant isolates (Supplemental Table S2). […] Also of interest was the finding that while relacidine B (4a) induced <1% hemolysis, a substitution of either the L-Ala or L-Ser to D-Ala or D-Ser increased hemolytic activity to 8–12%. […] The greater hydrolytic stability of relacidine B would appear to be attributable to the increased steric bulk of the Ala side chain next to the ester linkage (compared with the methylene of Gly in relacidine A), which may hinder the nucleophilic attack of water at the ester carbonyl.
(§2) Colistin sulfate was purchased from Activate Scientific. Kanamycin monosulfate was purchased from MP Biomedicals. E. coli ATCC 25922, S. aureus USA300 (ATCC BAA1717), and K. pneumoniae ATCC 13883 belong to the American Type Culture Collection (ATCC). P. aeruginosa PAO1 was kindly provided by L.H.C. Quarles Van Ufford of Utrecht University, Utrecht, The Netherlands. E. coli ATCC 25922 MCR-1 was transfected in-house using the pGDP2-MCR1 plasmid kindly provided by Yong-Xin Li of The University of Hong Kong, Hong Kong, China. Sheep blood agar plates (ref. PB5039A) were purchased from Thermo Scientific. Tryptic soy broth (ref. 02-200-500) was purchased from Scharlab. Mueller-Hinton broth (ref. X927.1) was purchased from Carl Roth. Polypropylene 96-wells plates (ref. 3879) were purchased from Corning.
(§3) MICs were determined according to Clinical and Standards Laboratory Institute (CLSI) guidelines. Blood agar plates were inoculated with glycerol stocks of E. coli ATCC 25922, K. pneumoniae ATCC 13883, P. aeruginosa PAO1, and S. aureus USA300. The inoculated agar plates were then incubated for 16 h at 37 °C. Individually grown colonies were subsequently used to inoculate 5 mL aliquots of tryptic soy broth (TSB) that were then incubated at 37 °C with shaking at 220 rpm. E. coli 25922 MCR-1 glycerol stock was used to inoculate 5 mL of TSB supplemented with kanamycin that was then incubated for 16 h at 37 °C with shaking at 220 rpm. The next day, the culture was diluted 100-fold in TSB supplemented with kanamycin and incubated at 37 °C with shaking at 220 rpm. In parallel, the lipopeptide antibiotic DMSO stocks to be assessed were serially diluted with Mueller Hinton broth (MHB) in polypropylene 96-well plates (50 μL in each well). Colistin sulfate stocks were dissolved in water before being diluted with MHB. Aliquots of the inoculated TSB were incubated until an OD600 of around 0.5 was reached. The bacterial suspensions were then diluted with MHB (2 × 10^5 cfu mL^–1) and added to the microplates containing the test compounds (50 μL to each well). The well plates were sealed with an adhesive membrane, and after 18 h of incubation at 37 °C with shaking at 600 rpm, the wells were visually inspected for bacterial growth. MIC values reported are based on three technical replicates and defined as the lowest concentration of the compound that prevented visible growth of bacteria.

E. coli ATCC 25922 = type: cell-based; conditions: CLSI microbroth dilution, Mueller Hinton broth, 18 h at 37 °C, visual read-out, three technical replicates
Procedure: as §1, §2, §3

K. pneumoniae ATCC 13883 = type: cell-based; conditions: CLSI microbroth dilution, Mueller Hinton broth, 18 h at 37 °C, visual read-out, three technical replicates
Procedure: as §1, §2, §3

P. aeruginosa PAO1 = type: cell-based; conditions: CLSI microbroth dilution, Mueller Hinton broth, 18 h at 37 °C, visual read-out, three technical replicates
Procedure: as §1, §2, §3

S. aureus USA300 = type: cell-based; conditions: CLSI microbroth dilution, Mueller Hinton broth, 18 h at 37 °C, visual read-out, three technical replicates
Procedure: as §1, §2, §3

[1] = tested on: colistin-resistant A. baumannii isolate BV94; assay: G. mellonella larvae infection model; type: in vivo; conditions: injected 1 h postinfection, 10^5 cfu A. baumannii BV94 per larva, ten larvae per group, 37 °C
Excerpt: Given the promising in vitro activity of relacidamide (5), along with its high serum stability, low hemolytic activity, and ease of synthesis, we further evaluated its efficacy in an established in vivo infection model using G. mellonella larvae. The G. mellonella infection model has gained popularity in recent years and provides a convenient method to assess the in vivo effectiveness and toxicity of novel antibiotics.[15],[16] […] The larvae were first injected with either vehicle (PBS) or A. baumannii BV94 suspension in the right second proleg. The moth larvae were then injected in the left second proleg with either PBS (untreated), colistin at 100 mg/kg or 200 mg/kg, or relacidamide (5) at 100 mg/kg or 200 mg/kg. The G. mellonella larvae were then incubated for 72 h, and their survival was assessed twice per day. […]
Ten G. mellonella larvae (Serum Therapeutics Inc., average weight of 0.265 g) per group were infected using a 10 μL injection in the right second proleg with mid-log phase (OD600 = 0.5)-growing bacteria resuspended and diluted in phosphate-buffered saline (PBS) to achieve the target inoculum of 10^5 colony forming unit (cfu) per larva. […] The viability of the larvae was assessed twice a day up to a total of 72 h postinfection by checking for movement. […]

## colistin [reference compound]
E. coli ATCC 25922 mcr-1
  MIC E. coli ATCC 25922 mcr-1: 4 µg/mL
E. coli ATCC 25922
  MIC E. coli ATCC 25922: 1 µg/mL
K. pneumoniae ATCC 13883
  MIC K. pneumoniae ATCC 13883: 0.25 to 0.5 µg/mL
P. aeruginosa PAO1
  MIC P. aeruginosa PAO1: 1 µg/mL
S. aureus USA300
  MIC S. aureus USA300: >32 µg/mL
[1]; 100 mg/kg
  survival of G. mellonella larvae after 72 h: none
[1]; 200 mg/kg
  survival of G. mellonella larvae after 72 h: none
